Patent US20080058310A1, “High-density lipoprotein-cholesterol level elevating agent” (Takeda Pharmaceutical Company Limited, priority 2000, published 2008)

Columns and labels:
common marmosets = assay: Plasma lipid change in common marmosets after four days of oral administration (Test Example 1); assay type: in vivo, common marmoset; conditions: male common marmosets, 100 mg/kg/day oral once a day for four days, blood plasma on fifth day, Means ± SEM (N = 5)
Description: Male common marmosets (300-500 g) were bred while feeding normal feed (CMS-1, CLEA Japan, Inc.) and water freely. The body weight was measured. Blood was taken from the femoral vein, and the total cholesterol (TC), HDL-cholesterol (HDL-C) and triglyceride (TG) in blood plasma were measured using Wako Pure Chemical kit (manufactured by Wako Pure Chemicals, Inc.) and an autoanalyzer (Hitachi 7070). The animals were devided into groups, each of which consisted of five animals. The subject compound, as a suspension in 0.5% methylcellulose, was forced oral administration to the animals once a day and for four days. On the morning of the fifth day, the body weight was measured. Blood was then taken from the femoral vein, and the total cholesterol, triglyceride and HDL-cholesterol in blood plasma were measured according to the above-mentioned method. The non-HDL-C was calculated by subtracting the HDL-cholesterol from the total cholesterol.

[1] = test system: WHHL (Watanabe heritable hyperlipidemic) rabbits; assay: Blood lipid levels in WHHL (LDL receptor-deficient) rabbits fed the compound in feedstuff for 14 days (Test Example 2); assay type: in vivo, rabbit; conditions: Means ± SEM (n = 6)
Description: WHHL (Watanabe heritable hyperlipidemic) rabbits (2 to 3 months-old, four male, eight female), LDL receptor-deficient animal were used. The body weight was measured. Blood was then taken from the ear central artery, and the total cholesterol (TC) and triglyceride (TG) in blood plasma were measured using Wako Pure Chemical kit (manufactured by Wako Pure Chemicals, Inc.) and an autoanalyzer (Hitachi 7070). The animals were divided into two groups, each of which consisted of six animals. The subject compound was mixed with a basic feedstuff (RC-4, Oriental Yeast, Co., Ltd) in an amount of 0.2%, and the mixed feedstuff was fed to the animals in an amount of 120 g per a day (corresponds to the amount of 100 mg/kg/day). To the control group was fed basic feedstuff in an amount of 120 g per a day. The blood lipid levels at the starting of administration and after finishing the administration for 14 days are shown in Table 2 and Table 3, respectively.

[2] = 0.2% in feed (corresponds to 100 mg/kg/day), after 14 days relative to initial
[3] = 0.2% in feed (corresponds to 100 mg/kg/day), after administration for 14 days
[4] = blood plasma at the starting of administration (baseline) of the 0.2% in feed group

COc1cccc([C@H]2O[C@H](CC(=O)N3CCC(CC(=O)O)CC3)C(=O)N(CC(C)(C)COC(C)=O)c3ccc(Cl)cc32)c1OC [subject compound, N-[[(3R,5S)-1-(3-acetoxy-2,2-dimethylpropyl)-7-chloro-5-(2,3-dimethoxyphenyl)-2-oxo-1,2,3,5-tetrahydro-4,1-benzoxazepin-3-yl]acetyl]piperidine-4-acetic acid]
HDL-C (%-change) (common marmosets): 16.2 ± 10%
TG (%-change) (common marmosets): −37.6 ± 17%
Non-HDL-C (%-change) (common marmosets; non-HDL-C = total cholesterol minus HDL-cholesterol): −40.4 ± 4 %
TC % of initial [1, 2]: 85 ± 2 %
TG % of initial [1, 2]: 40 ± 3 %
TC (mg/dL) end [1, 3]: 715 ± 36 mg/dL
TG (mg/dL) end [1, 3]: 107 ± 10 mg/dL
TC (mg/dL) initial [1, 4]: 838 ± 45 mg/dL
TG (mg/dL) initial [1, 4]: 272 ± 24 mg/dL
